Experimental findings from patent US20240133877A1, “PRODUCTS AND METHODS FOR MONITORING ADHERENCE TO NUCLEOSIDE REVERSE TRANSCRIPTASE INHIBITOR THERAPY” (priority 2017, published 2024) are described below.

The test system of one series is pAb 313. Description: Cross reactivity of compounds spiked in buffer with pAb 313. To be noted: compound spiked in buffer. The series is classed as binding, rabbit. How it is done:
(§1) To identify which compounds were causing cross reactivity, potentially cross-reactive compounds (compounds with similar chemical structure to TFV) were spiked in buffer and tested with the pAbs. We tested 11 compounds, and their percent cross reactivity was calculated for each of the substances in Table 3 to each antibody.

A further series deals with pAb 312. Description: Cross reactivity of compounds spiked in buffer with pAb 312. The series is classed as binding, rabbit. The following applies: compound spiked in buffer. How it is done: as §1
The nature of series [1]: Urine and plasma TFV levels by LC-MS/MS in participants taking TAF. The series is classed as in vivo, human. How it is done: Blood and urine samples were collected from 3 cohorts of patients: (1) 10 HIV positive participants with suppressed virus on a TAF-based regimen, (2) 10 HIV- participants administered 1 dose of FTC/TAF followed by urine and plasma sampling for 7 days starting 1-3 hours post-dose, and (3) 10 HIV- participants administered 7 daily doses of FTC/TAF followed by urine and plasma sampling for 10 days starting 1-3 hours after the last dose. Samples were analyzed using liquid chromatography-tandem mass spectrometry (LC-MS/MS) with high sensitivity and specificity for TFV. Samples from cohort 2 were compared to a historical cohort administered one dose of FTC/TD F.

[2] abbreviates: HIV-positive participants on TAF-based regimen (Cohort 1).

Consider `Nc1ncnc2c1ncn2[C@H]1C[C@H](O)[C@@H](COP(=O)(O)OP(=O)(O)OP(=O)(O)O)O1` [2′ Deoxyadenosine 5′ Triphosphate], for which the “Cross Reactivity of 313 (vs TFV standard)” value in the series with pAb 313 is listed as “None”. Further, the “Cross Reactivity of 312 (vs TFV standard)” value in the series with pAb 312 is on record as “None”.

For the molecule `Nc1nc2c(ncn2[C@H]2C[C@H](O)[C@@H](COP(=O)(O)OP(=O)(O)OP(=O)(O)O)O2)c(=O)[nH]1` [2′Deoxyguanosine 5′ Triphosphate], the “Cross Reactivity of 313 (vs TFV standard)” value in the series on pAb 313 was “None”. Moreover, the “Cross Reactivity of 312 (vs TFV standard)” value in the series with pAb 312 is on record as “None”.

Turning to `Nc1ncnc2c1ncn2CCOCP(=O)(O)O` [Adefovir], the “Cross Reactivity of 313 (vs TFV standard)” value with pAb 313 was “Reactive (0.1%)”. Also, the “Cross Reactivity of 312 (vs TFV standard)” value with pAb 312 is “Reactive (0.1%)”.

Consider `Nc1ncnc2c1ncn2[C@@H]1O[C@H](CO)[C@@H](OP(=O)(O)O)[C@H]1O` [Adenosine 3′ Monophosphate], for which, in the series on pAb 313, the “Cross Reactivity of 313 (vs TFV standard)” value was “Reactive (0.1%)”. Further, the “Cross Reactivity of 312 (vs TFV standard)” value in the series with pAb 312 is “Reactive (0.1%)”.

`Nc1ncnc2c1ncn2[C@@H]1O[C@H](COP(=O)(O)O)[C@@H](O)[C@H]1O.O` [Adenosine 5′ Monophosphate Monohydrate]: the “Cross Reactivity of 313 (vs TFV standard)” value in the series with pAb 313 is on record as “None”. In addition, the “Cross Reactivity of 312 (vs TFV standard)” value in the series on pAb 312 is given as “None”.

Consider `Nc1ncnc2c1ncn2[C@@H]1O[C@H](COP(=O)([O-])OP(=O)([O-])OP(=O)(O)O)[C@@H](O)[C@H]1O.[Na+].[Na+]` [Adenosine 5′ Triphosphate Disodium], for which, in the series with pAb 313, the “Cross Reactivity of 313 (vs TFV standard)” value is recorded as “None”. The “Cross Reactivity of 312 (vs TFV standard)” value in the series on pAb 312 is “None”.

As for `Nc1ncnc2c1ncn2[C@@H]1O[C@H](CO)[C@@H](O)[C@H]1O` [Adenosine], in the series with pAb 313, the “Cross Reactivity of 313 (vs TFV standard)” value is listed as “Reactive (0.1%)”. Further, the “Cross Reactivity of 312 (vs TFV standard)” value with pAb 312 is “None”.

In the case of `Nc1ccn(C[C@@H](CO)OCP(=O)(O)O)c(=O)n1` [Cidofovir Hydrate], in the series with pAb 313, the “Cross Reactivity of 313 (vs TFV standard)” value was “Reactive (5%)”. Besides, in the series with pAb 312, the “Cross Reactivity of 312 (vs TFV standard)” value was “None”.

As for `Nc1nc2c(ncn2[C@@H]2O[C@H](COP(=O)([O-])[O-])[C@@H](O)[C@H]2O)c(=O)[nH]1.[Na+].[Na+]` [Guanosine 5′ Monophosphate Disodium], in the series on pAb 313, the “Cross Reactivity of 313 (vs TFV standard)” value is “None”. The “Cross Reactivity of 312 (vs TFV standard)” value in the series on pAb 312 is given as “None”.

As for `CNc1ncnc2c1ncn2[C@@H]1O[C@H](COP(=O)(O)O)[C@@H](O)[C@H]1O` [N6 Methyladenosine 5′ Monophosphate], the “Cross Reactivity of 313 (vs TFV standard)” value in the series with pAb 313 is “None”. Moreover, the “Cross Reactivity of 312 (vs TFV standard)” value in the series with pAb 312 was “Reactive (0.1%)”.

Turning to `CNc1ncnc2c1ncn2[C@@H]1O[C@H](CO)[C@@H](O)[C@H]1O` [N6 Methyladenosine], the “Cross Reactivity of 313 (vs TFV standard)” value with pAb 313 was “None”. Moreover, in the series on pAb 312, the “Cross Reactivity of 312 (vs TFV standard)” value is reported as “None”.

In the case of `C[C@H](Cn1cnc2c(N)ncnc21)OCP(=O)(O)O` [TFV, tenofovir], the “urine TFV concentration” value in series [1] (7 consecutive doses FTC/TAF, 1-3 hours after discontinuation of dosing) was > 1000 ng/mL; in series [1] (setting [2]), 1000 ng/mL; in series [1] (single dose FTC/TAF, HIV- subjects, 1-3 hours post-dose) it was 100 to 1000 ng/mL. The “urine TFV level” value in series [1] (7 consecutive doses FTC/TAF, up to 7 days post discontinuation, in 8 out of 10 participants) is given as > 100 ng/mL. In addition, the “TFV concentration higher in urine than plasma” value in series [1] (HIV-positive participants on TAF-based regimen) is recorded as 2 logs. Moreover, the “plasma TFV concentration” value is reported as 10 ng/mL in series [1] (setting [2]) and ≤ 10 ng/mL in series [1] (both HIV-negative cohorts (FTC/TAF), all time points). The concentration at 144 h in series [1] (human, urine, oral, single dose FTC/TAF, for 6 days, in 8 of 10 participants, read-out: urine TFV concentration remaining) is > 100 ng/mL. The “persistence of TFV in urine at detectable concentrations” value in series [1] (patients taking FTC/TAF) is reported as “at least 7 days”. Besides, the “urine TFV concentrations after FTC/TAF versus historical cohort administered FTC/TDF” value in series [1] (single dose) is “comparable”.
